Test results as given in US20200377568A1, “Novel IL-4-/IL-13-derived peptide compounds for the treatment or prevention of neurodegenerative or neuroinflammatory diseases” (Universitätsmedizin der Johannes Gutenberg-Universität Mainz, priority 2018, published 2020).
“Also recorded” adds a separate entry of the source. Peptide text beside a SMILES is read from it.

Assays:
[1] = system: hippocampal cell line HT22; assay: CellTiter-blue cell viability assay (ctb), hippocampal cell line; assay type: cell-based; details: HT22 cells, increasing concentrations, FIG. 2B
Method: (§1) Toxicity was checked by subjecting mouse embryonic fibroblasts (Mef) and the hippocampal cell line HT22 to a CellTiter-blue cell viability assay (ctb).
(§2) Mouse embryonic fibroblasts (Mef) (Sigma-Aldrich) and hippocampal HT22 (ThermoScientific) cells were cultured according to the manufacturer's protocols. Ctb assays were performed according to the manufacturer's protocols (Promega).

[2] = system: mouse embryonic fibroblasts (Mef); assay: CellTiter-blue cell viability assay (ctb), fibroblasts; assay type: cell-based; details: Mef cells, increasing concentrations, FIG. 2A
Method: as §1, §2

[3] = system: CD11b+ bone marrow-derived macrophages (BMDMs); assay: Differentiation of bone marrow-derived macrophages; assay type: cell-based, mouse; details: different concentrations, FIG. 4A
Method: (§3) A-B: Effects of incubation with IL-4 and different concentrations of Link4 and Link13 on the differentiation of A: CD11b^+ bone marrow-derived macrophages (BMDMs) into F80^+CD206^+ cells, and B: CD4^+ T cells into Gata3^+ cells. C-D: FACS results for different populations of T cells and CD11b^+MHCII^+ monocytes/macrophages/microglia of immune cells isolated from C: spleen and D: central nervous system (CNS) of EAE mice treated with PBS, IL-4 or Link4.
(§4) In order to investigate whether Link4 and Link13 are able to modulate immune cells, in vitro assays were performed on bone marrow-derived macrophages (BDMBs) and on naïve T cells.
Murine BMDMs were isolated from adult C57BL/6 mice. The tibia and femur bones were flushed with sterile PBS and the bone marrow was collected in washing medium. After filtering the cell suspension trough a 100 μm nylon mesh, the cells were centrifuged (5 min, 550 g, 4° C.) and resuspended in mouse medium (10% FCS, 1% P/S, 1% L-glutamine, 0.1% β-mercaptoethanol, 1% HEPES in RPMI buffer). For the in vitro generation of BMDMs cells were plated in 6 well-plates and exposed to 20 ng/ml Macrophage […] (M-CSF) for 4 days. For the activation of the cells, Dexametason (5×10^−7M), LPS (10 μg/ml) and IL-4 (10 ng/ml) were added to the culture for the following 3 days.

CD4+ T cells = assay: TH2 differentiation of naive T cells; assay type: cell-based, mouse; details: different concentrations, FIG. 4B
Method: as §3, §4
For the isolation of T lymphocytes 5-8 week old C57BL/6 mice were sacrificed by cervical dislocation and the spleens and lymph nodes (LN) were isolated and rubbed trough a 100 μm cell strainer into a 50 ml tube with washing medium (5% FCS, 1% P/S,1% HEPES in PBS). After washing, the cells were centrifuged for 5 min at 550 g at 4° C. To remove the red blood cells the […] was re-suspended in lysis buffer followed by centrifugation (5 min, 550 g, 4° C.). The cells were resuspended in MACS buffer and magnetic lymphocyte sorting was performed on ice, using the MidiMACS and QuadroMACS Seperators. A CD4 untouched and CD8 touched cell sort was performed a washing step in ml MACS buffer (5 min, 550 g, 4° C.). Cells were incubated with CD4 T cell biotin antibody cocktail (Miltenyi Biotec) in MACS buffer for 5 min at 4° C. Subsequently, anti-biotin microbeads and CD8 microbeads in MACS buffer was added. CD8 microbeads were added to reduce the possible contamination of CD8^+ lymphocytes. After 10 min of incubation at 4° C. the cells were washed again and resuspended in MACS buffer. MACS columns were pre equilibrated and topped with pre-separation filters (30 μm). A maximum of 300×10^6 cells were added to each column followed by 3 consecutive washing steps with MACS buffer. […] The purity of the magnetic cells sorts was assessed by comparing pre- and post-sort samples by flow cytometry. […]

[4] = system: human H9 cell-derived neurons; assay: Growth assay for human H9 cells; assay type: cell-based; details: 50 ng/ml, 24 h, vs PBS, FIG. 7B
Excerpt: B: Human Link4 induced neurite outgrowth in human H9 cell-derived neurons. Human neurons were cultivated with commercially available human neural stem cells (H9 cells), which were then differentiated to become neurons. […] The growth assay for human H9 cells described herein can be used to easily detect effects of the derivative peptides of the present invention on human neurons. In particular, this assay can be used to quickly test whether derivative peptides falling within the scope of the present invention are functional.
H9 human neural stem cells (H9 hNSCs) were purchased from Gibco and expanded according to the manufacturer's instructions. For consecutive neural differentiation hNSCs were harvested and reseeded on glass coverslips coated with Matrigel (High Concentration, Growth Factor Reduced; Corning; diluted 1:100 in Knockout DMEM [Gibco]) at a density of 25.000 cells/cm^2. hNSCs were allowed to rest for 48 hours in a basal neuronal medium (Neurobasal, 1X B27, 1x Glutamax, 1x Penicillin/Streptomycin, all from Gibco) before changing to EnStem A Neural Differentiation Medium (SCM017, Millipore) for a further 4 days. Cultures were treated with recombinant human IL-4 (Peprotech) or human Link4 at 50 ng/ml or equal volumes of PBS for 24 h. […]

[5] = system: experimental autoimmune encephalomyelitis (EAE) mice; assay: EAE clinical score, treatment during the chronic phase; assay type: in vivo, mouse; details: chronic phase of EAE, vs PBS
Method: To test whether Link4 has similar effects to IL-4 in vivo, two pilot experiments were performed. In the first experiment (FIG. 3A), B16 mice were subjected to EAE and treated with IL-4, Link4, Ph8 and PBS (n=6-7 animals per group) via lumbar intrathecal injection directly into the cerebrospinal fluid (CSF) every other day for 14 days, in the chronic phase of the disease starting from day 5 after the first disease peak (grey bar). […] For better clinical translation, the treatment was then switched to nasal treatment with IL-4 and Link4 (FIG. 3B; 2 pooled experiments, n=15-16 per group). Nasally applied treatments can enter the brain through the cribriform plate, where olfactory nerve fibers cross through the bone, resulting in a connection between the roof of the nasal cavity and the brain (C. F. Xiao, F. J. Davis, B. C. Chauhan, K. L. Viola, P. N. Lacor, P. T. Velasco, W. L. Klein, and N. B. Chauhan, Brain transit and ameliorative effects of intranasally delivered anti-amyloid-beta oligomer antibody in 5XFAD mice. J Alzheimers Dis 35, 777-788 (2013)). Again, both IL-4 and Link4 treatments were beneficial.
For active EAE, female 9-10-weeks-old C57BI6 mice were immunized as previously described (M. Paterka, J. O. Voss, J. Werr, E. Reuter, S. Franck, T. Leuenberger, J. Herz, H. Radbruch, T. Bopp, V. Siffrin, and F. Zipp, Dendritic cells tip the balance towards induction of regulatory T cells upon priming in experimental autoimmune encephalomyelitis. J Autoimmun 67, 108-114 (2017)) by subcutaneous injection of 200 μg myelin oligodendrocyte […] 35-55 (MOG35-55) mixed with complete Freund adjuvant (CFA). Following the MOG35-55 immunization 400 ng pertussis toxin (PTX) was administered intraperitoneally at the day of immunizaton and after 24 h. Clinical signs were scored using the following parameters:
Treatment with rIL-4 (1 μg, Peprotech), Ph8 (1 μg, custom synthesized, Schafer N), Link4 (1 μg, custom synthesized, Schafer N) or vehicle (PBS) was performed during the chronic phase of the disease models by lumbar intrathecal injection (R. Lu and A. Schmidtko, Direct intrathecal drug delivery in mice for detecting in vivo effects of cGMP on pain processing. Methods Mol Biol 1020, 215-221 (2013)) or nasal application of IL-4 and Link4 was performed according to published procedures (C. F. Xiao, F. J. Davis, B. C. Chauhan, K. L. Viola, P. N. Lacor, P. T. Velasco, W. L. Klein, and N. B. Chauhan, Brain transit and ameliorative effects of intranasally delivered anti-amyloid-beta oligomer antibody in SXFAD mice. J Alzheimers Dis 35, 777-788 (2013)). Mice were pre-trained to avoid stress and held at a 45 degree angle to apply IL-4 solution (1 μg, Peprotech) to the nostrils using a pipette tip.

[6] = cited from earlier work
[7] = lumbar intrathecal injection, 1 μg every other day for 14 days

CC[C@H](C)[C@H](NC(=O)CNC(=O)[C@@H](NC(=O)[C@@H](NC(=O)[C@@H](N)CCC(=O)O)[C@@H](C)CC)[C@@H](C)CC)C(=O)NCC(=O)N1CCC[C@H]1C(=O)N[C@@H](CCCNC(=N)N)C(=O)N[C@@H](CC(C)C)C(=O)N[C@@H](Cc1ccccc1)C(=O)N[C@@H](CCCNC(=N)N)C(=O)N[C@@H](C)C(=O)N[C@@H](Cc1ccccc1)C(=O)N[C@@H](CCCNC(=N)N)C(=O)N[C@@H](CS)C(=O)N[C@@H](CO)C(=O)NCC(=O)N[C@@H](CO)C(=O)N[C@@H](CCCNC(=N)N)C(=O)N[C@@H](C)C(=O)N[C@@H](CO)C(=O)N[C@@H](CCCCN)C(=O)N[C@H](C(=O)N[C@@H](CC(C)C)C(=O)N[C@@H](CCCNC(=N)N)C(=O)N[C@H](C(=O)N[C@@H](Cc1ccccc1)C(=O)N[C@@H](Cc1ccc(O)cc1)C(=O)N[C@@H](CC(C)C)C(=O)O)[C@@H](C)CC)C(C)C [AvoC] (H-EIIGIGPRLFRAFRCSGSRASKVLRIFYL-OH; N-terminus and C-terminus assumed)
toxic effects on hippocampal neurons (cell viability) [1]: no toxic effects
toxic effects on fibroblasts (cell viability) [2]: no toxic effects

LIRSELIEELSNITGSFITKLLSYTKQ (listed as Mus musculus) [Link13]
differentiation of CD11b+ BMDMs into F80+CD206+ cells [3]: did not occur
differentiation of CD4+ T cells into Gata3+ cells (CD4+ T cells): did not take place

WNRSEIIKTGSKTIMREKY (listed as Homo sapiens) [human Link4]
neurite outgrowth [4]: increase neurite outgrowth
clinical score [5, 7]: equally effective as mouse Link4

interleukin-4 [IL-4]
half-life in blood plasma [6]: very short half-life
clinical score [5, 7]: ameliorate clinical symptoms; also recorded: significant improvement in the clinical score; also recorded: significant amelioration of the clinical score
clinical score ([5]; lumbar intrathecal injection, 1 μg every other day for 14 days, listed as mouse full length IL-4): reducing disease symptoms
clinical score ([5]; nasal application): equally effective; also recorded: significant improvement in the clinical score; also recorded: beneficial
differentiation of CD11b+ BMDMs into F80+CD206+ cells [3]: increased the expression of the differentiation markers F80 and CD206
differentiation of CD4+ T cells into Gata3+ cells (CD4+ T cells): observed

B1: full length IL-4: recombinant human IL-4 (Peprotech) used on human H9 cell-derived neurons (protein, UniProt P05112 25-153, looked up)
Interleukin-4: HKCDITLQEIIKTLNSLTEQKTLCTELTVTDIFAASKNTTEKETFCRAATVLRQFYSHHEKDTRCLGATAQQFHRHKQLIRFLKRLDRNLWGLAGLNSCPVKEANQSTLENFLERLKTIMREKYSKCSS
neurite outgrowth [4]: increase neurite outgrowth
